According to publication PMC6005348, “Betahistine Treatment in a Cat Model of Vestibular Pathology: Pharmacokinetic and Pharmacodynamic Approaches” (Frontiers in Neurology, 2018):

Tests used:
cochlear blood flow = test system: cochlear blood flow; set-up: method as in PMID 25014609; conditions: guinea pig model ref 29; cited from earlier work
[1] = Plasma pharmacokinetics of betahistine and 2-PAA after oral dosing in UVN cats (LC-MS/MS, non-compartmental analysis); format: in vivo, cat; conditions: days 1 and 21
Procedure: The experiments were performed on nine adult male UVN cats randomly allocated into three groups of cats. Three groups of three adult male cats received 0.2 mg/kg betahistine (N = 3: cats 1–3), 2 mg/kg betahistine (N = 3: cats 4–6), or 0.2 mg/kg betahistine plus 1 mg/kg selegiline (N = 3: cats 7–9). […] The samples were frozen at −80°C until analysis. Pharmacokinetic parameters of betahistine and its major metabolite 2-PAA were calculated by applying non-compartmental analysis.
Betahistine and its internal standard, betahistine-d3, were extracted by liquid/liquid extraction from plasma under alkaline conditions toward 1-butanol/isooctane, followed by a second liquid/liquid extraction step of acidic 1-butanol/isooctane toward water. Betahistine concentration in plasma was analyzed using a validated LC-MS/MS method. In brief, an API 4000 (Applied Biosystems) mass spectrometer coupled with a Symbiosis HPLC system (Sparks, Emmen, The Netherlands) was employed to analyze betahistine. Extracts (100 μl) were injected into a XTerra RP18 150 ^* 4.6 mm, 3.5 μm column (Waters, Etten-Leur, The Netherlands) and separated at 30°C under isocratic conditions using an aqueous metanol solution containing 0.5 mM ammonium formate as mobile phase. Betahistine was quantified by a tandem mass spectrometer in positive MRM. Parent daughter transition was followed for betahistine (m/z 137 > 94). Betahistine-d3 dihydrochloride was used as internal standard. Pharmacokinetic parameters of betahistine were calculated by applying non-compartmental analysis using the validated PK software WinNonLin, version 5.23 (Pharsight Corporation, Mountain View, CA, USA).
Cmax and tmax were derived directly from the plasma concentration-time curves. Linear trapezoidal rule was used to calculate AUC0-t during the part of the curve with increasing plasma concentrations. For the descending part of the curve, the log-linear trapezoidal rule was used. Calculation of the elimination half-life (t1/2) was evaluated as ln 2/kel, with kel as the slope of the terminal phase of the plasma concentration-time curve.

Row | Compound | Increase in cochlear blood flow (cochlear blood flow) | Effect of selegiline co-administration on 2-PAA Cmax-values [1]
1 | O=C(O)Cc1ccccn1 [2-PAA, 2-pyridylacetic acid] | not | strongly reduced
2 | NCCc1ccccn1 [aminoethylpyridine] | observed | 
3 | OCCc1ccccn1 [hydroxyethylpyridine] | observed | 
